Data published in US9994509B2, “Inhibitors of viral replication, their process of preparation and their therapeutical uses” (HIVIH, priority 2013, dated 2018).

system: NL4-3 strain of HIV-1; assay: HIV-1 replication assay: cyto-protection of MT4 cells infected with NL4-3 virus, CellTiter-Glo viability readout; type: cell-based; conditions: Human immunodeficiency virus 1, NL43, 120 h; concentration leading to 50% of cyto-protection; MT4 cells infected with NL4-3 virus; 5 days incubation; CellTiter-Glo; read-out: EC50
Procedure: The antiviral activity, particularly against HIV, of compounds according to the invention is evaluated by the protocol described below.
Preparation of Virus stock of the NL4-3 strain of HIV-1 (Adachi et al, J Virol, 1986, 59(2):284-91).
The virus was prepared as described in Lopez et al (Lopez et al, Proc Natl Acad Sci USA., 2006, 103(40):14947-52, by transfecting 2×10^6 293 T cells (CRL-1573, ATCC) with following modifications: 6 μg of NL4-3 proviral DNA molecular clone were mixed with X-tremeGENE 9 DNA transfection reagent from Roche, and used according to manufacturer's instructions. Twenty four hours later, cells were washed and fresh medium added. Forty eight hours after transfection, cell supernatants were harvested, filtered through 0.45-μm-pore-size filters, quantified for HIV-1 p24 antigen by using an Innotest HIV antigen mAb assay (Ingen) according to manufacturer's instructions, and used in infection experiments.
Serial dilutions of compounds to be tested were prepared in complete RPMI medium from 10 mM DMSO stock solutions, and distributed in a volume of 20 μl in 96 well tissue-culture treated plates (Costar 3917), in order to get 0.5% DMSO final concentration in each well, after the addition of infected cells. Control wells contained also 0.5% DMSO final concentration but no compound.
MT4 cells (from the NIH AIDS Research and Reference Reagent Program) in RPMI complete medium were counted (10×10^6 cells per well in Falcon 353047 Multiwell™ 24 well) and infected for 2 hours at 37°, at a multiplicity of infection (moi) of 0.0001-0.00001. Cells were then centrifuged for 3 min at 3000 rpm, and washed two times in 1 ml PBS to remove viruses that have not entered the cells. Infected cells were resuspended in complete RPMI at 1.25×10^6 cells/ml, and 80 μl of infected cells were distributed in each well containing compounds to be tested or control wells. The plates were then incubated at 37° C. for 5 days.
Assay used to measure the inhibition of HIV replication by the compounds (according to Gregg S. Jones et al., Antimicrobial Agents and Chemotherapy, 2009, 53 (3): 1194-1203).
After 5 days of incubation, microplates were equilibrated to room temperature for 30 min and then 50 μl of CellTiter-Glo reagent (Promega Biosciences, Inc., Madison Wis., USA) were added to each well. Cell lysis was carried out at room temperature during 10 min and luminescence was read on a Fluoroskan (Thermo Scientific).
The EC50, or effective concentration 50, is the concentration of compound leading to 50% of cyto-protection in a CellTiter-Glo® viability assay based on MT4 cells infected with NL4-3 virus (table 1).

In order of rising EC50:
1. Cc1ccc(C(C)C)c(-c2ccc3c(c2)CCCO3)c1C(OC(C)(C)C)C(=O)O (centres unmarked) [Example 5, 2-(tert-butoxy)-2-[2-(3,4-dihydro-2H-1-benzopyran-6-yl)-3-isopropyl-6-methylphenyl]acetic acid]  23 nM
2. Cc1ccc(C2CC2)c(-c2ccc3c(c2)CCCO3)c1C(OC1(C)CC1)C(=O)O (centres unmarked) [Example 39, (2-chroman-6-yl-3-cyclopropyl-6-methyl-phenyl)-(1-methyl-cyclopropoxy)-acetic acid]  24 nM
3. Cc1ccc(C2CC2)c(-c2ccc3c(c2C)CCCO3)c1C(OC1CC1)C(=O)O (centres unmarked) [Example 32, cyclopropoxy-[3-cyclopropyl-6-methyl-2-(5-methyl-chroman-6-yl)-phenyl]-acetic acid]  32 nM
4. Cc1ccc(-c2c(C3CC3)ccc(C)c2C(OC(C)(C)C)C(=O)O)cc1 (centres unmarked) [Example 14, 2-(tert-butoxy)-2-(6-cyclopropyl-3,4′-dimethyl-biphenyl-2-yl)-acetic acid]  51 nM
5. COc1ccc(-c2c(C3CC3)ccc(C)c2C(OC(C)(C)C)C(=O)O)cc1 (centres unmarked) [Example 12, 2-(tert-butoxy)-2-(6-cyclopropyl-4′-methoxy-3-methyl-biphenyl-2-yl]acetic acid]  78 nM
6. CC(C)(C)OC(C(=O)O)c1c(C(F)(F)F)ccc(C2CC2)c1-c1ccc2c(c1)CCCO2 (centres unmarked) [Example 2, 2-(tert-butoxy)-2-[3-cyclopropyl-2-(3,4-dihydro-2H-1-benzopyran-6-yl)-6-(trifluoromethyl)phenyl]acetic acid]  90 nM
7. Cc1ccc(C2CCC2)c(-c2ccc3c(c2)CCCO3)c1C(OC(C)(C)C)C(=O)O (centres unmarked) [Example 43, tert-butoxy-(2-chroman-6-yl-3-cyclobutyl-6-methyl-phenyl)-acetic acid]  94 nM
8. Cc1ccc(C2CC2)c(-c2ccc3c(c2)CCCO3)c1C(OC1CC1)C(=O)O (centres unmarked) [Example 23, 2-[3-cyclopropyl-2-(3,4-dihydro-2H-1-benzopyran-6-yl)-6-methylphenyl]-2-cyclopropoxyacetic acid]  100 nM
9. CC(C)(C)OC(C(=O)O)c1c(-c2ccc3c(c2)CCCO3)c(C2CC2)cc2ncccc12 (centres unmarked) [Example 42, tert-butoxy-(6-chroman-6-yl-7-cyclopropyl-quinolin-5-yl)-acetic acid]  190 nM
10. Cc1ccc(C2(C)CC2)c(-c2ccc3c(c2)CCCO3)c1C(OC(C)(C)C)C(=O)O (centres unmarked) [Example 25, tert-butoxy-[2-chroman-6-yl-6-methyl-3-(1-methyl-cyclopropyl)-phenyl]-acetic acid]  200 nM
11. CC(C)(C)OC(C(=O)O)c1c(C(F)(F)F)ccc(C2CCCC2)c1-c1ccc2c(c1)CCCO2 (centres unmarked) [Example 6, 2-(tert-butoxy)-2-[3-(cyclopentyl)-2-(3,4-dihydro-2H-1-benzopyran-6-yl)-6-(trifluoromethyl)phenyl]acetic acid]  270 nM
12. O=C(O)C(OC1CC1)c1c(C(F)(F)F)ccc(C2CC2)c1-c1ccc2c(c1)CCCO2 (centres unmarked) [Example 27, (2-chroman-6-yl-3-cyclopropyl-6-trifluoromethyl-phenyl)-cyclopropoxy-acetic acid]  280 nM
13. Cc1ccc(C2CC2)c(-c2ccc3c(c2)CCCO3)c1C(CC1CC1)C(=O)O (centres unmarked) [Example 45, 3-cyclopropyl-2-[3-cyclopropyl-2-(3,4-dihydro-2H-1-benzopyran-6-yl)-6-methylphenyl]propanoic acid]  290 nM
14. Cc1ccc([C@@H]2C[C@@H]2C)c(-c2ccc3c(c2)CCCO3)c1C(OC(C)(C)C)C(=O)O (relative stereo) [Example 26, tert-Butoxy-[2-chroman-6-yl-6-methyl-3-(cis-2-methyl-cyclopropyl)-phenyl]-acetic acid]  300 nM
15. CCOC(C(=O)O)c1c(C)ccc(C2CC2)c1-c1ccc2c(c1)CCCO2 (centres unmarked) [Example 19, 2-(2-chroman-6-yl-3-cyclopropyl-6-methyl-phenyl)-2-ethoxy-acetic acid]  400 nM
16. Cc1ccc(C2CC2)c(-c2ccc3c(c2)CCCO3)c1C(OC1CC1(F)F)C(=O)O (centres unmarked) [Example 47, (2-chroman-6-yl-3-cyclopropyl-6-methyl-phenyl)-(2,2-difluoro-cyclopropoxy)-acetic acid]  450 nM
17. Cc1ccc(C2CC2)c(-c2ccc3c(c2)CCCO3)c1C(CC(C)C)C(=O)O (centres unmarked) [Example 46, 2-[3-cyclopropyl-2-(3,4-dihydro-2H-1-benzopyran-6-yl)-6-methylphenyl]-4-methylpentanoic acid]  650 nM
18. Cc1ccc(C2CC2)c(-c2ccc3c(c2)CCCO3)c1C(OCCF)C(=O)O (centres unmarked) [Example 35, (2-chroman-6-yl-3-cyclopropyl-6-methyl-phenyl)-(2-fluoro-ethoxy)-acetic acid]  830 nM
19. CCCc1ccc(C)c(C(OC(C)C)C(=O)O)c1-c1ccc2c(c1)CCCO2 (centres unmarked) [Example 31]  1000 nM
20. Cc1ccc(C)c(C(OC(C)(C)C)C(=O)O)c1-c1ccc2c(c1)CCCO2 (centres unmarked) [Example 62, 2-(tert-butoxy)-2-[2-(3,4-dihydro-2H-1-benzopyran-6-yl)-3,6-dimethylphenyl]acetic acid, reference compound]  1600 nM
